Measured values as given in patent US4810636A, “Chromogenic acridinone enzyme substrates” (Miles Inc., priority 1987, dated 1989).

What was measured:
[1] = Phenolic pKa of the chromogen; assay type: physicochemical
Excerpt: (§1) (C), 2462 (1970), where R and R' in the general formula (2) are methyl.

[2] = Solubility and stability in aqueous buffered / basic solution; assay type: physicochemical
Excerpt: According to a preferred embodiment of the present invention, chromogenic enzyme substrate compounds of the general formula (8), where Y is a radical of an enzyme-specific sugar moiety Y--OH, preferably β-D-galactose or β-D-glucose, and R and R' are methyl, can be prepared by reacting the dimethyl chromogen (20) with a 1-halogeno-derivative of the enzyme-specific moiety, preferably a 1-bromo-derivative thereof, substituted at the hydroxy-positions thereof with protecting groups, preferably acetate protecting groups, to result in per-O-substituted derivatives which can be hydrolyzed to remove such protecting groups to obtain the desired chromogenic enzyme substrate compound. For example, the β-D-galactoside of (20), the chromogenic enzyme substrate (8) where Y is the radical of β-D-galactose and R and R' are methyl, can be prepared for use in the determination of β-D-galactosidase. In particular, the dimethyl acridinone chromogen (20), where R and R' are methyl in the general formula (2), is reacted with acetobromogalactose and silver oxide in ethyl acetate/quinoline to prepare the 7-(tetra-O-acetyl-β-D-galactopyranosyloxy)-9,9-dimethyl-9H-acridin-2-one (31) of the formula: [drawing 13] […] The resulting galactoside (32) has an absorbance (λmax) of 438 nm (yellow), an extinction coefficient of 27,400, and is soluble in a phosphate buffered solution (pH 7.4). […]

[3] = Visible absorbance (λmax, extinction coefficient) of substrate and chromogen; assay type: physicochemical; details: for absorbance (λmax): uncleaved substrate or protonated chromogen
Excerpt: According to a preferred embodiment of the present invention, chromogenic enzyme substrate compounds of the general formula (8), where Y is a radical of an enzyme-specific sugar moiety Y--OH, preferably β-D-galactose or β-D-glucose, and R and R' are methyl, can be prepared by reacting the dimethyl chromogen (20) with a 1-halogeno-derivative of the enzyme-specific moiety, preferably a 1-bromo-derivative thereof, substituted at the hydroxy-positions thereof with protecting groups, preferably acetate protecting groups, to result in per-O-substituted derivatives which can be hydrolyzed to remove such protecting groups to obtain the desired chromogenic enzyme substrate compound. For example, the β-D-galactoside of (20), the chromogenic enzyme substrate (8) where Y is the radical of β-D-galactose and R and R' are methyl, can be prepared for use in the determination of β-D-galactosidase. In particular, the dimethyl acridinone chromogen (20), where R and R' are methyl in the general formula (2), is reacted with acetobromogalactose and silver oxide in ethyl acetate/quinoline to prepare the 7-(tetra-O-acetyl-β-D-galactopyranosyloxy)-9,9-dimethyl-9H-acridin-2-one (31) of the formula: [drawing 13] The acetate protecting groups of (31) are then hydrolyzed with sodium methoxide in methanol to result in the desired 7-β-D-galactopyranosyloxy-9,9-dimethyl-9H-acridin-2-one (32) of the present invention of the formula: [drawing 14] The resulting galactoside (32) has an absorbance (λmax) of 438 nm (yellow), an extinction coefficient of 27,400, and is soluble in a phosphate buffered solution (pH 7.4).
as §1

[4] = molecular target: T1, β-D-galactosidase (Escherichia coli, UniProt P00722); experiment: Analytical test device for β-D-galactosidase, reflectance dose response; assay type: biochemical; details: 0.02-0.20 ng/ml β-D-galactosidase, reflectance at 630 nm after 50-70 seconds
T1 sequence (P00722 2-1024): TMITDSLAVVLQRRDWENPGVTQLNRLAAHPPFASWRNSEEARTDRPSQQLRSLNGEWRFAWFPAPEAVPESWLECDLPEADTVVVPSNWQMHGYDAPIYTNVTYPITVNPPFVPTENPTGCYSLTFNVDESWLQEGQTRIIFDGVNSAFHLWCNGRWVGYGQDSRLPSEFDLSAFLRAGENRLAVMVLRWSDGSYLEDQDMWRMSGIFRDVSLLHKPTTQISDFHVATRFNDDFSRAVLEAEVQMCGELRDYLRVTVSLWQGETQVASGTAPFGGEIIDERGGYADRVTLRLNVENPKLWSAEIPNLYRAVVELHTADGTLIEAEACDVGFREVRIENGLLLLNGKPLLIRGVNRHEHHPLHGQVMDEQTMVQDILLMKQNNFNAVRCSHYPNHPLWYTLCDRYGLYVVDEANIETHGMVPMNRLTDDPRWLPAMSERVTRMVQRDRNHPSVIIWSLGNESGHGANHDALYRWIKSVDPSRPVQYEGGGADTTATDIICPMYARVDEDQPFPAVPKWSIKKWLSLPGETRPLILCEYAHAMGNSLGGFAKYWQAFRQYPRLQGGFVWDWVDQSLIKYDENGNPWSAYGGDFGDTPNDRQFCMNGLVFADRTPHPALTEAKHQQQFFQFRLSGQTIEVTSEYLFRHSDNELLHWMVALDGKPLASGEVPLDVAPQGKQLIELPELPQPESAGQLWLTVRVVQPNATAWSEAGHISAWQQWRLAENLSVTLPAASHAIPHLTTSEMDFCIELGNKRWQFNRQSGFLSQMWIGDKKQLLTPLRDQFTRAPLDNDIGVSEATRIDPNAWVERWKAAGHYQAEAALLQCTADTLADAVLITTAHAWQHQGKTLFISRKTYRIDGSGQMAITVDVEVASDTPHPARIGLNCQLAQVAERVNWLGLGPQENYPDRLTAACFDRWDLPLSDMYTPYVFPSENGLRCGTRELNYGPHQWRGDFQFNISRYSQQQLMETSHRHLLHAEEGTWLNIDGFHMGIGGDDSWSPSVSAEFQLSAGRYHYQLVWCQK
Procedure: A 2 inch wide×2 inch long sheet of Whatman 54 filter paper (Whatman, Inc., Clifton, N.J., U.S.A.) was immersed in an aqueous solution comprising 0.3M bicine buffer (pH 7.9) and 4.0 mM MgCl2 and air-dried overnight at room temperature. The filter paper was then immersed in a methanol solution containing 15 mM of the substrate product (32) from Example 3 and air-dried for one hour at room temperature to obtain a filter paper which was yellow in color.
A 0.5 cm wide×1.0 cm long segment of the above-described impregnated yellow filter paper was mounted onto and along the edge of one surface of a 0.5 cm×8.125 cm polystyrene support (Tricite®, Dow Chemical Co., Midland, Mich., U.S.A.) previously laminated with a 2 mm strip of Double Stick® double-faced adhesive tape (3M Company, St. Paul, Minn., U.S.A.) for use as an analytical test device for the detection of β-D-galactosidase from a liquid test sample.
Ten analytical test devices were prepared according to Example 4 and employed to determine the dose response of the substrate product compound (32) of the present invention to β-D-galactosidase.
[…] aqueous test sample solutions containing β-D-galactosidase concentrations of 0.02 ng/ml, 0.04 ng/ml, 0.06 ng/ml, 0.08 ng/ml, 0.12 ng/ml, 0.14 ng/ml, 0.16 ng/ml, 0.18 ng/ml and 0.20 ng/ml were prepared and an analytical test device dipped into each.

[5] = molecular target: T1, β-D-galactosidase; experiment: Hydrolysis of the galactoside substrate by β-D-galactosidase (Kcat, Km); assay type: biochemical; details: 50 mM phosphate buffered solution (pH 7.4) containing 5 mM MgCl2
Excerpt: According to a preferred embodiment of the present invention, chromogenic enzyme substrate compounds of the general formula (8), where Y is a radical of an enzyme-specific sugar moiety Y--OH, preferably β-D-galactose or β-D-glucose, and R and R' are methyl, can be prepared by reacting the dimethyl chromogen (20) with a 1-halogeno-derivative of the enzyme-specific moiety, preferably a 1-bromo-derivative thereof, substituted at the hydroxy-positions thereof with protecting groups, preferably acetate protecting groups, to result in per-O-substituted derivatives which can be hydrolyzed to remove such protecting groups to obtain the desired chromogenic enzyme substrate compound. For example, the β-D-galactoside of (20), the chromogenic enzyme substrate (8) where Y is the radical of β-D-galactose and R and R' are methyl, can be prepared for use in the determination of β-D-galactosidase. In particular, the dimethyl acridinone chromogen (20), where R and R' are methyl in the general formula (2), is reacted with acetobromogalactose and silver oxide in ethyl acetate/quinoline to prepare the 7-(tetra-O-acetyl-β-D-galactopyranosyloxy)-9,9-dimethyl-9H-acridin-2-one (31) of the formula: [drawing 13] […] The resulting galactoside (32) has an absorbance (λmax) of 438 nm (yellow), an extinction coefficient of 27,400, and is soluble in a phosphate buffered solution (pH 7.4).

Row | phenolic pKa [1] | solubility and stability ([2]; aqueous, basic solutions) | shift in the absorbance maximum on deprotonation [3] [nm] | absorbance of the deprotonated anion ([3]; deprotonated chromogen) [nm] | extinction coefficient of the anion ([3]; pH=10, in M-1 cm-1 (unit assumed)) | SMILES | absorbance (λmax) [3] [nm] | dose response of reflectance to β-D-galactosidase [4] | rate at which the enzyme cleaves the substrate (Kcat) [5] | Km ([5]; read-out: binding constant (Km)) [µM] | solubility ([2]; phosphate buffered solution (pH 7.4)) | change in absorbance between substrate and liberated chromogen anion [3] [nm] | absorbance of the liberated chromogen anion ([3]; after hydrolysis by β-D-galactosidase, phosphate buffered solution) [nm] | extinction coefficient ([3]; uncleaved substrate, at 438 nm, in M-1 cm-1 (unit assumed))
1 | 7.1 | soluble and stable | 176 | 635 | 53,100 | CC1(C)C2=CC(=O)C=CC2=Nc2ccc(O)cc21 [Compound 20, 7-hydroxy-9,9-dimethyl-9H-acridin-2-one, reference compound] | 459 |  |  |  |  |  |  | 
2 |  |  |  |  |  | CC1(C)C2=CC(=O)C=CC2=Nc2ccc(O[C@@H]3O[C@H](CO)[C@H](O)[C@H](O)[C@H]3O)cc21 [Compound 32, 7-β-D-galactopyranosyloxy-9,9-dimethyl-9H-acridin-2-one] | 438 | linear dose response | 1.32×10^4 mol. min.^-1 /mol. active site | 170 | soluble | 196 | 634 | 27,400
